Assay results published in US7314858B2, “Retrocyclins: antiviral and antimicrobial peptides” (priority 2001, dated 2008).
“Also recorded” adds a separate entry of the source. Where a SMILES comes first, the peptide text is derived from it. Bridges are numbered along the chain shown (N, C = ends).

How the values were obtained:
[1] = tested on: ME-180 cervical carcinoma cells; settings: 100 μg/ml
[2] = tested on: H9 cells; assay: MTT cytotoxicity assay; type: cell-based, human; settings: 100 μg/ml
Protocol: FIG. 8. Cytotoxicity of antimicrobial peptides against H9 cells. Retrocyclin, RTD-1 and PG-1 (a porcine-derived peptide with anti-HIV-1 activity) were tested for cytotoxicity using an MTT assay for cell proliferation. Note that the EC50 of Retrocyclin and RTD-1 were >100 μg/ml, concentrations well above their antiviral concentration.
Retrocyclin is not cytotoxic. […] Retrocyclin was not hemolytic for human erythrocytes.

[3] = tested on: HIV-1 strain JR-CSF; assay: HIV-1 JR-CSF infection of CD4+ PBMC, p24 antigen ELISA; type: cell-based; settings: JR-CSF (R5), peptide 10-20 μg/ml
Protocol: FIG. 5A-C. Anti-HIV-1 activity of retrocyclin. Two strains of HIV-1 and two types of human target cells were used. The IIIB strain is T-cell tropic (X4) and utilizes the CXCR4 co-receptor for entry; the JR-CSF strain is M-tropic (R5) and uses CCR5 for entry. PBMC signifies CD4^+-selected peripheral blood mononuclear cells. […] (A) Two concentrations of retrocyclin (2 μg/ml, 20 μg/ml), 20 μg/ml of the Rhesus circular defensin “RTD-1”, and 20 μg/ml of a horseshoe crab-derived peptide “T140”, reported to only prevent X4 infections, were tested in antiviral assays of against strain IIIB in H9 cells (n=2-6 per peptide; error bars indicate SEM). (B) To confirm our results with primary human cells, similar assays were performed utilizing IIIB virus and CD4^+ PBMC or (C) JR-CSF virus and CD4^+ PBMC. Peptides were not cytotoxic at indicated concentrations, measured by trypan blue exclusion. Average of duplicate experiments are reported for studies with PBMCs. Assay sensitivity=10 pg/ml.
Either HIV-1-permissive H9 cells were used as targets, or primary CD4^+ lymphocytes from HIV-1-seronegative donors generated from freshly purified peripheral blood mononuclear cells (PBMC) stimulated with a CD3-CD8 bispecific monoclonal antibody. After approximately 7 days, when 98% of these cells co-expressed CD3 and CD4, they were infected with HIV-1 with or without retrocyclin or other test peptide. These cells were maintained in RPMI containing 10% FCS supplemented with 2 mM glutamine, 100 U of penicillin/ml, 10 μg of streptomycin/ml, and 50 U of interleukin 2/ml (R10-50 media).
The p24 assay results shown in FIG. 9 are on a logarithmic scale. A horizontal reference line that passes through 100 on the ordinate scale corresponds to […] of p24 antigen. Results from 3 experiments (each performed with PBMC from a different donor) are shown.

[4] = target: T1, CD4 (Homo sapiens, UniProt P01730); assay: Surface plasmon resonance binding; settings: immobilized CD4
T1 construct: Recombinant human soluble CD4 (full-length 45 kDa glycosylated ectodomain); purchased Protein Sciences Corporation, Meriden, Conn; host or cells: ExpresSF+ S. frugiperda cells
Excerpt: Surface plasmon resonance. Recombinant human soluble CD4 (full-length 45 kDa glycosylated ectodomain) was produced by ExpresSF+S. frugiperda cells in serum-free medium (Protein Sciences Corporation, Meriden, Conn.). Glycosylated HIV-1 gp120 (LAV) envelope glycoprotein (Catalog No. 2003-LAV) was purchased from the same source. Recombinant HIV-1BaL was obtained through the AIDS Research and Reference Reagent Program, Division of AIDS, National Institute of Allergy and Infectious Disease, NIH.
Surface plasmon resonance (SPR) experiments were done with a Biacore 2000 system (Biacore, Inc., Piscataway, N.J.). The running buffer (pH 7.4) contained 10 mM HEPES, 150 mM NaCl, 3 mM EDTA and 0.005% polysorbate 20. The immobilized proteins (gp120-LAV and CD4) were dissolved at 20 μg/ml in 10 mM sodium acetate, pH 5.0 and immobilized on a Biacore CM5 sensor chip using the amine coupling method. The chip was activated by mixing 400 mM EDC (N-ethyl-N-(3-dimethylaminopropyl)-carbodiimide hydrochloride) and 100 mM N-hydroxysuccinimide. […] Residual reactive groups on the chip surface were blocked using 1.0 Methanolamine/HCl, pH 8.5.
The flow cell chip used as a control lacked immobilized protein but was otherwise treated as above. Signals were corrected for nonspecific binding by subtracting the control signal. To regenerate the chip surface, bound ligands were removed with 10 mM HCl. Data were analyzed with BIAevaluation 3.1 software. Curve fitting was done with an assumption of 1:1 binding.
In those experiments, biosensor chips containing immobilized gp120 or CD4 were perfused with a 1 μg/ml solution of the peptides, and binding was measured by surface plasmon resonance. […] No binding studies were performed with gp120 preparations derived from non-B HIV-1 subtypes.

[5] = tested on: HSV-1; assay: HSV inactivation microplate assay on ME-180 cells (MTT); type: cell-based, herpes simplex virus, type 1; settings: 2-50 μg/ml, 2 hrs with virus, 72 hrs culture
Protocol: FIG. 14. Inactivation of HSV-1 and HSV-2 by retrocyclin and RC-101. Retrocyclin (left panel) and RC-101 (right panel) at the indicated concentrations were incubated with herpes simplex virus, type 1 (HSV-1) or HSV-2 for 2 hrs and then added to ME-180 cell monolayers. Cells were incubated at 37° C. for 72 hrs, and cytotoxicity was measured with an MTT kit.
Some retrocyclins are slightly active against herpes simplex virus (HSV). To determine if the activity of retrocyclin against HIV-1 was specific or representative of a more global antiviral effect, it was tested its ability to prevent HSV infection in vitro. A quantitative microplate assay was used to screen retrocyclin and retrocyclin-congeners for their ability to inactivate HSV type 1 (HSV-1) and HSV-2. The assay utilized small amounts of peptide and simultaneously evaluated for peptide-induced cytotoxicity. In brief, final peptide concentrations of 2-50 μg/ml were incubated with virus stocks for 2 hrs and added directly to ME-180 human cervical carcinoma cells. Cultures were incubated at 37° C. for 72 hrs and cytotoxicity was measured using a 3-(4,5-dimethylthiazon-2-yl)-2,5-diphenyltetrazolium bromide (MTT) cell proliferation kit (Boehringer-Mannheim, Germany). Calculations to assess antiviral activity and compute “percent protection” are delineated in (90).

[6] = Preliminary surface plasmon resonance, sphingolipid binding; settings: preliminary SPR
[7] = tested on: HIV-IIIB; assay: Direct inactivation of HIV-1 virions (preincubation with virus, dilution, infection of H9 cells); type: cell-based; settings: 200 μg/ml, 30 min, then diluted 190-fold
Protocol: FIG. 12. […] Retrocyclin (2-200 μg/ml) was incubated with HIV-IIIB (MOI=10^−2) diluted in R10 media prior to infecting H9 cells. p24 antigen release was measured by ELISA. Limit of detection=10 pg/ml.
To determine if retrocyclin directly inactivated HIV-1 virions, HIV-IIIB (MOI 10^−2) was incubated with 2 μg/ml, 20 μg/ml, or 200 μg/ml retrocyclin for 30 min at room temperature in R10 media. […] Viral replication was measured by collecting supernatant for 9 days at 3 day intervals to quantify HIV-1 p24 antigen by ELISA (FIG. 12). […] In this respect, the actions of retrocyclin are different from the direct inactivation of herpes simplex virus previously observed with human and rabbit α-defensins.

Row | Structure (SMILES) | cytotoxicity (MTT) [1] | cytotoxicity (MTT) [2] | inhibition of HIV-1 replication (p24) [3] | koff [4] | kon [4] | protection against HSV-1 [5] | binding to sphingolipids (galactosylceramide) [6] | HIV titer after incubation of virus with peptide [7]
1 | CC[C@H](C)[C@@H]1NC(=O)CNC(=O)[C@H](CCCNC(=N)N)NC(=O)CNC(=O)[C@@H]2CSSC[C@H](NC1=O)C(=O)N[C@@H](CCCNC(=N)N)C(=O)N[C@H]1CSSC[C@H](NC(=O)[C@H](CCCNC(=N)N)NC(=O)[C@@H]3CSSC[C@H](NC(=O)[C@H]([C@@H](C)CC)NC1=O)C(=O)NCC(=O)N[C@@H](CCCNC(=N)N)C(=O)NCC(=O)N[C@@H]([C@@H](C)CC)C(=O)N3)C(=O)N[C@@H]([C@@H](C)CC)C(=O)N2 [RC-100, Retrocyclin] (cyclo(GICRCICGRGICRCICGR); disulfide 3-16, 5-14, 7-12) | little to no cytotoxicity | little to no cytotoxicity | complete suppression; also recorded: uniformly protective | 0.0022 s⁻¹ | 67700 M⁻¹ s⁻¹ | not HSV-1 | binds with high affinity | not reduced
2 | CC[C@H](C)[C@@H]1NC(=O)CNC(=O)[C@H](CCCCN)NC(=O)CNC(=O)[C@@H]2CSSC[C@H](NC1=O)C(=O)N[C@@H](CCCNC(=N)N)C(=O)N[C@H]1CSSC[C@H](NC(=O)[C@H](CCCNC(=N)N)NC(=O)[C@@H]3CSSC[C@H](NC(=O)[C@H]([C@@H](C)CC)NC1=O)C(=O)NCC(=O)N[C@@H](CCCNC(=N)N)C(=O)NCC(=O)N[C@@H]([C@@H](C)CC)C(=O)N3)C(=O)N[C@@H]([C@@H](C)CC)C(=O)N2 [RC-101, R9K-Retrocyclin] |  |  | as active as retrocyclin | 0.00226 s⁻¹ | 79000 M⁻¹ s⁻¹ | modestly protective |  | 
